Source: patent US12053441B2, “Formulations for improving the delivery of hydrophobic agents” (THE ROYAL INSTITUTION FOR THE ADVANCEMENT OF LEARNING / …, priority 2018, dated 2024)

Experiments:
Pdss2/Mclk1 DKO MEFs = assay: Cellular UQ10 levels (quinone quantification by HPLC); type: cell-based, mouse
Experimental: (§1) Quantification of quinones. Quinone content was detected and quantified by HPLC as previously described. […] After centrifugation for 5 min at 8,000×g, the hexane layer was collected and evaporated in a vacuum centrifuge. The quinone residue was then dissolved in ethanol and stored at −20° C. until HPLC analysis. The HPLC analysis was performed on a reverse phase C18 column (25.0×0.46 cm, 5 μm, Highchrom) using UV detection at 275 nm (Beckman System Gold). The mobile phase was methanol/ethanol (70:30 v/v) and isocratic elution was used at a flow rate of 1.8 ml/min.

wildtype MEFs = assay: as above; type: cell-based, mouse
Experimental: as §1

Pdss2/Mclk1 DKO cells [1] = assay: Viability in glucose-free galactose-containing medium (resazurin reduction assay); type: cell-based, mouse
Experimental: Tissue culture and viability assays. […] Cell viability was determined by resazurin (Sigma Cat No R7017) reduction assay or crystal violet staining following standard procedures.
The resazurin cell viability assay. Briefly, resazurin was added directly to plates at 1/10 the volume of glucose culture medium. Viable cells with active metabolism can reduce resazurin into resorufin which causes a colour change from blue to pink. After a 2 hr incubation, plates were read on a plate reader (Tecan) to record absorbance at 570 nm and 600 nm. The cell viability was scored as a percentage relative to the signal from untreated glucose-grown wells. Consequently, each screened compound may be described by its effect (no, partial or full rescue) on survival of the KO cells in galactose medium.
The screen also uses cells lacking UQ biosynthesis (e.g., DKO cells) and its protocol is essentially the same as the galactose-only screen except that in step 2, a minimal amount of UQ10 is added into the galactose screening media at a concentration at which the added UQ10 is insufficient by itself to support survival.

[2] = Drop collapse assay (surfactant activity); type: physicochemical
Experimental: Drop collapse assay is a simple detection method of surface active agents. It relies on the capacity of surfactants to destabilize the liquid droplets on an oily surface. The drop-collapsing ability of McC1 along with other known potent surfactants was characterized. For each, 40 ul of compound solution in water was pipetted onto a hydrophobic Parafilm surface and the diameter of the drops was measured 1 min later using a ruler.

[3] = system: mouse embryonic fibroblasts (MEFs); assay: Effect of PTX/McC1 micelles on cell growth and survival (resazurin reduction assay); type: cell-based; details: 2 to 6 days exposure (FIG. 26B)
Experimental: To evaluate the antiproliferative activity of PTX/McC1 micelles, we seeded exponentially growing mouse embryonic fibroblasts (MEFs) into 48-well plates, exposed them to PTX/McC1 micelles for 2 to 6 days, and determined the treatment effect on cell growth and survival by comparing the numbers of variable cells before and after the treatment.
Cells were allowed to attach overnight and then the PTX/McC1 solution was added into the culture media to obtain the desired concentrations. After 2 days' treatment, the standard resazurin reduction assay was used to evaluate cell growth and survival.

Pdss2/Mclk1 DKO cells [4] = assay: Oxygen consumption rate (OCR) by Seahorse XF analyzer; type: cell-based, mouse; details: co-treatment with UQ10
Experimental: Measurement of oxygen consumption by Seaborse XF analyzer. Cells were seeded in XF v7 24-well plates (Seahorse Bioscience) at ˜40,000 cells/well for 24 hr. Prior to the measurements, cell medium was replaced with Seahorse XF base medium supplemented with 5.5 mM glucose (Sigma Cat No G8769), 2 mM Glutamax (Thermo Fisher Cat No 35050061) and 1 mM sodium pyruvate and allowed to equilibrate for 1 hour at 37° C. Oxygen consumption was measured first under baseline condition, followed by subsequent addition of 1 μg/ml oligomycin (Sigma Cat No 04876), 0.8 μM FCCP (Sigma Cat No C2920) and a combination of 1 μM rotenone (Sigma Cat No R8875) and 5 μM antimycin A (Sigma Cat No A8674) to assess the basal and maximal mitochondrial respiration rates. Four baseline measurements were recorded before the consecutive addition of the above-mentioned compounds, and three response measurements were taken after the addition of each compound. Results were finally normalized to protein content determined using the Bradford reagent (Bio-Rad). For experiments that involved culturing cells in the presence of lipoprotein-deficient serum (LPDS), cells were grown in culture medium supplemented with LPDS (Sigma S5394) for 1 week before OCR was measured using a Seahorse XF-24 extracellular flux analyzer as described above.

[5] = Experimental: Solubilization studies. In order to link the surfactant properties of McC1 and its stimulating impact on UQ10 uptake, the solubilization characteristics of McC1 on UQ10 have been determined. First, solubilization test was performed by overnight shaking of a mixture of UQ10 and McC1 in water.
Additional solubilization tests were performed using sonication. Excess amount of UQ10 was mixed with McC1 by sonication for 2 min in water.
Like caspofungin/McC1, surfactin is a cyclic lipopeptide. It is produced from various strains of Bacillus subtilis. Structurally it consists of a peptide chain formed by seven amino acids linked to a β-hydroxyl fatty acid via a lactone bond. It is known for its exceptional surfactant power. […] Then, solubilization test was performed by overnight shaking of a mixture of UQ10 and surfactin in water. The mixture were subjected to brief centrifugation to separate undissolved UQ10 before absorbance of the resultant clear supernatant at 275 nm was measured spectrophotometrically.
Several other surfactants were tested for their ability to solubilize UQ. Briefly, excess amount of UQ10 was mixed with water solution of the tested surfactants using sonication. The resultant suspensions were then filtered through a 0.45 μm syringe filter to remove undissolved UQ10.

[6] = system: mitochondria of wild-type MEFs; assay: UQ levels in mitochondrial extracts; type: cell-based, mouse; details: in combination with UQ10, vs UQ10 alone
Description: (§2) FIGS. 7A to 7D present exemplary data showing that McC1 is capable of increasing the uptake of exogenous UQ into cells and mitochondria. (A) Bar chart showing change of UQ10 levels (as measured in ng/μg of protein) in Pdss2/Mclk1 DKO MEFs after treatment with UQ10, McC1 alone, or UQ10 and McC1 in combination. **p<0.01, ***p<0.001 (one-way ANOVA). (B) Bar charts presenting exemplary data showing changes of UQ levels in wildtype MEFs after treatment with UQ10, McC1 alone, or both in combination. Results are shown as cellular UQ10 levels (as provided in ng/μg of protein, left panel) or UQ9 levels (as provided in ng/μg of protein, right panel) in untreated cells, after treatment with 12.5 μM of McC1, after treatment with 2.5 μM of UQ10, or after co-treatment UQ10 and McC1. Results are mean±SEM (n=3). ****p<0.0001 (one-way ANOVA). (C) Bar chart presenting exemplary data showing changes of UQ10 and UQ9 levels in mitochondrial extracts from wildtype MEFs after treatment with UQ10 alone, or in combination with McC1. Results are shown as UQ9 and UQ10 levels in ng/μg of protein. Results are mean±SEM (n=3). ****p<0.0001 (student's t-test). (D) Bar chart presenting exemplary data showing changes of UQ10 level in mitochondrial extracts from Pdss2/Mclk1 DKO MEFs after treatment with UQ10 alone, or in combination with McC1. Results are shown as UQ10 levels (as provided in ng/μg of protein) in untreated DKO cells, after treatment with 2.5 μM of UQ10, or after co-treatment 2.5 μM of UQ10 and 12.5 μM of McC1. ND: Not Detectable. Results are mean±SEM (n=3). ****p<0.0001 (one-way ANOVA).
as §1

[7] = system: mitochondria of Pdss2/Mclk1 DKO MEFs; assay: UQ levels in mitochondrial extracts; type: cell-based, mouse; details: in combination with UQ10, vs UQ10 alone
Description: as §2, §1

[8] = Solubilization of paclitaxel (PTX) in water; details: FIG. 25
Experimental: (A) Bar graph showing a concentration of soluble PTX in 4 mM McC1 solution. After mixing PTX and McC1 solution, the undissolved residues were removed by filtration through a 0.22 μm pore-size membrane. For determination of the PTX concentration, absorbance at 230 nm was measured and compared to a standard curve generated for known concentrations of PTX in pure methanol.

[9] = in combination with UQ10, vs UQ10 alone

Structure (SMILES)	intracellular concentration of UQ (Pdss2/Mclk1 DKO MEFs; compound used alone)	cellular uptake of exogenous UQ10 (Pdss2/Mclk1 DKO MEFs; [9])	intracellular concentration of UQ (wildtype MEFs; compound used alone)	cellular uptake of exogenous UQ10 (wildtype MEFs; [9])	survival of DKO cells in galactose medium (Pdss2/Mclk1 DKO cells [1]; compound by itself, no UQ10 added)	survival of DKO cells in galactose medium (Pdss2/Mclk1 DKO cells [1]; in the presence of a minimal amount of UQ10)	surfactant (drop collapse) activity [2]	effect on cell growth and survival [3]	mitochondrial respiration (OCR) compared with UQ10 treatment alone (Pdss2/Mclk1 DKO cells [4])	increase in aqueous solubility of UQ10 [5]	water solubility of UQ10 in the presence of the compound [5]	uptake of exogenous UQ10 into mitochondria [6]	uptake of exogenous UQ10 into mitochondria [7]	solubility of PTX in water-only control [8]
CC[C@H](C)C[C@H](C)CCCCCCCCC(=O)N[C@H]1C[C@@H](O)[C@@H](NCCN)NC(=O)[C@@H]2[C@@H](O)CCN2C(=O)[C@H]([C@H](O)CCN)NC(=O)[C@H]([C@H](O)[C@@H](O)c2ccc(O)cc2)NC(=O)[C@@H]2C[C@@H](O)CN2C(=O)[C@H]([C@@H](C)O)NC1=O [McC1, Caspofungin]	no effect	increased uptake of exogenous UQ10 into cells	no effect	increased uptake of exogenous UQ10 into cells	no effect	able to rescue the mutant cells from death	moderate surfactant activity	no observable toxicity	greater increase of mitochondrial respiration	more than 1,200,000 fold	greatly increased	significantly increased uptake of exogenous UQ10 into mitochondria	significantly increased uptake of exogenous UQ10 into mitochondria	
CC(=O)O[C@H]1C(=O)[C@@]2(C)[C@H]([C@H](OC(=O)c3ccccc3)[C@]3(O)C[C@H](OC(=O)[C@H](O)[C@@H](NC(=O)c4ccccc4)c4ccccc4)C(C)=C1C3(C)C)[C@]1(OC(C)=O)CO[C@@H]1C[C@@H]2O [PTX, Paclitaxel]														not soluble in water
